The source of these data is ChEMBL document CHEMBL4616721, “Nitrogen-Walk Approach to Explore Bioisosteric Replacements in a Series of Potent A2B Adenosine Receptor Antagonists” (J Med Chem, 2020).

Series [1] addresses T1, Adenosine receptor A1 (Homo sapiens) (UniProt P30542).
T1 sequence (whole entry): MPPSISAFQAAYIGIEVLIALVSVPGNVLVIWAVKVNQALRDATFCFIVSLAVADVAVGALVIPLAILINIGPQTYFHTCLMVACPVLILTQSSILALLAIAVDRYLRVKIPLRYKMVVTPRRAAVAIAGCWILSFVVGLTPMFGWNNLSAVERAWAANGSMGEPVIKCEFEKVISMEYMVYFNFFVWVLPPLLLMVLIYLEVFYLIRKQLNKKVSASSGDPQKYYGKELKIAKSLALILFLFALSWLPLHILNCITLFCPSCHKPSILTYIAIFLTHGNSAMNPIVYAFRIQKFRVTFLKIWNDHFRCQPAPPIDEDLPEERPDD
The series can be described thus: Displacement [3H]DPCPX from human adenosine A1 receptor expressed in CHO cell membranes at 1 uM incubated for 60 mins by scintillation counting method relative to control.

The target of the next series is Adenosine receptor A2a (Homo sapiens, UniProt P29274). Description: Displacement [3H]ZM241385 from adenosine A2A receptor in human HeLa cell membranes at 1 uM incubated for 30 mins by scintillation counting method relative to control.
Sequence of Adenosine receptor A2a (P29274 whole entry): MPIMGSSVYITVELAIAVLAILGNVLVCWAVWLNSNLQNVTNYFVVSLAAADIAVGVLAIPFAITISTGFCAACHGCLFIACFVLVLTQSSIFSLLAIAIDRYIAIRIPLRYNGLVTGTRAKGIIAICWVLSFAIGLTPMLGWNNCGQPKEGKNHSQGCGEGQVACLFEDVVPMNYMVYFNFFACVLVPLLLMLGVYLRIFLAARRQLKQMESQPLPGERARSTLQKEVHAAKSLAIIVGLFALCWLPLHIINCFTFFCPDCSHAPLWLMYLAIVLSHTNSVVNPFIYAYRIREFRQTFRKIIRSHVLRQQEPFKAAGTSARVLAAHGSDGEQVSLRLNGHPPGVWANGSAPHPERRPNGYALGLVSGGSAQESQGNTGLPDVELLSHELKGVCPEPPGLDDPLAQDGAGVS
Series [2] deals with T2, Adenosine receptor A3 (Homo sapiens) (UniProt P0DMS8).
T2 sequence (whole entry): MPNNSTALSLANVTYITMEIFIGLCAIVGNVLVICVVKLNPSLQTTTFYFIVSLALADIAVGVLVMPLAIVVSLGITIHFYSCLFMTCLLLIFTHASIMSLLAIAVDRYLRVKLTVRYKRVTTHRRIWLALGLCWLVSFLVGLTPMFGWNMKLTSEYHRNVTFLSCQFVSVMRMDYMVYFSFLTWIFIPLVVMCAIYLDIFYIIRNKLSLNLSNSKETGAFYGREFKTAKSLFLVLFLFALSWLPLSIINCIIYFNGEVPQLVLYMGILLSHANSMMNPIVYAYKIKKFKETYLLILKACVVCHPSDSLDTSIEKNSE
Description: Displacement [3H]NECA from adenosine A3 receptor in human HeLa cell membranes at 1 uM incubated for 180 mins by scintillation counting method relative to control.

The target in the next series is Cytochrome P450 3A4 (Homo sapiens, UniProt P08684). Description: Inhibition of CYP3A4 (unknown origin) expressed in insect cell microsomes using dibenzylfluorescein substrate by fluorescence based assay. The format is ADME.
Sequence of Cytochrome P450 3A4 (P08684 whole entry): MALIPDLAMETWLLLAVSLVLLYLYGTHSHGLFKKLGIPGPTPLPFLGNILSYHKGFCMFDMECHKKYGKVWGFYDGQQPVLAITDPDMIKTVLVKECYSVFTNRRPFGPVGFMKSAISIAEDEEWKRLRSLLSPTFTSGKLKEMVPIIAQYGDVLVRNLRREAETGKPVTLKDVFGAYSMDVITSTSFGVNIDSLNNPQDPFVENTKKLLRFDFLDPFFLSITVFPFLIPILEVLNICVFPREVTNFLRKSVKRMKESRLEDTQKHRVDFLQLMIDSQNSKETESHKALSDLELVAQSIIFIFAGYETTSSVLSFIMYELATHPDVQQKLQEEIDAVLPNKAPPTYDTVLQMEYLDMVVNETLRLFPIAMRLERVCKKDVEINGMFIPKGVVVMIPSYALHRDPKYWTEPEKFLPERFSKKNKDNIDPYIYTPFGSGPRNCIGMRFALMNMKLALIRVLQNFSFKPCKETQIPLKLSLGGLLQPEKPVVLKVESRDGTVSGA
Series [3] concerns the target T3, CYP2D6 (Homo sapiens, UniProt P10635). The series can be described thus: Inhibition of CYP2D6 (unknown origin) expressed in insect cell microsomes at 1 uM using dibenzylfluorescein substrate by fluorescence based assay relative to control. The format is ADME. The note with it: insect cell microsomes expressing CYP2D6, probe dibenzylfluorescein.
Series [4] concerns the target T3, CYP2D6. The series can be described thus: Inhibition of CYP2D6 (unknown origin) expressed in insect cell microsomes at 10 uM using dibenzylfluorescein substrate by fluorescence based assay relative to control. The note with it: insect cell microsomes expressing CYP2D6, probe dibenzylfluorescein. It is filed as ADME.
A further series concerns the target T4, Adenosine receptor A2b (Homo sapiens, UniProt P29275).
T4 sequence (P29275 whole entry): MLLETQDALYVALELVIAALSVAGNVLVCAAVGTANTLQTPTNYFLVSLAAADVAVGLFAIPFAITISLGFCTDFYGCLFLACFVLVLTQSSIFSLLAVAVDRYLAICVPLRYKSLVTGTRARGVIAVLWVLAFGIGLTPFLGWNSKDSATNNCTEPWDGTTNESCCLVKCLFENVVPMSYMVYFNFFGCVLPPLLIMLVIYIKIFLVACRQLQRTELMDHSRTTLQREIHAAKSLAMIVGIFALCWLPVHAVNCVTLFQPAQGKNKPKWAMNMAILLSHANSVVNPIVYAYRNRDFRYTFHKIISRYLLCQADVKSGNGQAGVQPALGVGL
Description: Displacement [3H]DPCPX from human adenosine A2B receptor expressed in HEK293 cell membranes incubated for 60 mins by scintillation counting method.

T3 sequence (P10635 whole entry): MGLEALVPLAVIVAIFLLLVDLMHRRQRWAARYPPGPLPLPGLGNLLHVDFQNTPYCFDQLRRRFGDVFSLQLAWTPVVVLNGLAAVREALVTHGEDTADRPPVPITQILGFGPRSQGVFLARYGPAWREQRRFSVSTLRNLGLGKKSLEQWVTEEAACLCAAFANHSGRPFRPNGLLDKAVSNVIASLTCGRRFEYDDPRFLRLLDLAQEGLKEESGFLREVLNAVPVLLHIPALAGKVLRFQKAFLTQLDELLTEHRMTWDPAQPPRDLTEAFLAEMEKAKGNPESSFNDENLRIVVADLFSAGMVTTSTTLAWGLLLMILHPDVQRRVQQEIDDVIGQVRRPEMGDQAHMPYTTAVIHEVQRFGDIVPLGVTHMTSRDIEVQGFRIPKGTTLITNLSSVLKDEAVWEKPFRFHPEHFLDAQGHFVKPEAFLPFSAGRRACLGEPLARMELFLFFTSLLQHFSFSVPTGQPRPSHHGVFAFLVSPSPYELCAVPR

For `CC1=C(C(=O)OC(C)C)Cn2c(nc3ccccc32)N1`, the inhibition in series [1] was found to be 31%; at Adenosine receptor A2a, 4%; in series [2], 13%.

On to `CCOC(=O)C1=C(C)Nc2nc3ccccc3n2C1`, for which the values for the inhibition (in series [1]; on Adenosine receptor A2a; in series [2]) were 34%, 11% and 9%, respectively.

At Adenosine receptor A2a, `CC1=C(C(=O)OC(C)C)C(c2ccoc2)n2c(nc3ccccc32)N1` (racemic) showed an inhibition of 22%. This compound came in with an IC50 at Cytochrome P450 3A4 of 2680 nM. Further, the inhibition at 1 µM against CYP2D6 [3] turned out to be 8%. The compound further showed an inhibition at 10 µM on CYP2D6 [4] of 31%.

`CC1=C(C(=O)OC(C)C)C(c2ccco2)n2c(nc3ccccc32)N1` (racemic) registered an inhibition on Adenosine receptor A2a of 25%. The compound further showed an IC50 against Cytochrome P450 3A4 of 2900 nM. On CYP2D6 [3], this compound yielded an inhibition at 1 µM of 5%. This compound came in with an inhibition at 10 µM at CYP2D6 [4] of 35%.

Consider `CC1=C(C(=O)OC(C)C)C(c2ccc[nH]2)n2c(nc3ccccc32)N1` (racemic), for which the inhibition in series [1] turned out to be 38%; at Adenosine receptor A2a, 19%; in series [2] it was 1%. Moreover, the inhibition constant (Ki) on Adenosine receptor A2b is 31.3 nM.

For the compound `CC1=C(C(=O)OC(C)C)C(c2cncs2)n2c(nc3ccccc32)N1` (racemic), the values for the inhibition (in series [1]; on Adenosine receptor A2a; in series [2]) were 2%, 3% and 5%, respectively. The same compound gave an inhibitory constant (Ki) at Adenosine receptor A2b of 68.3 nM.

Turning to `CC1=C(C(=O)OC(C)C)C(c2cc[nH]n2)n2c(nc3ccccc32)N1` (racemic), the values for the inhibition (in series [1]; at Adenosine receptor A2a; in series [2]) were 1%, 7% and 2%, respectively. The inhibition constant (Ki) on Adenosine receptor A2b turned out to be 1100 nM.

As to `CC1=C(C(=O)OC(C)C)C(c2ccns2)n2c(nc3ccccc32)N1` (racemic), the inhibition in series [1] was 24%; on Adenosine receptor A2a, 18%; in series [2], 4%. Moreover, the Ki on Adenosine receptor A2b was found to be 175 nM.

Take `CCOC(=O)C1=C(C)Nc2nc3ccccc3n2C1c1cc[nH]n1` (racemic): the values for the inhibition (in series [1]; at Adenosine receptor A2a; in series [2]) were 8%, 11% and 1%, respectively. The compound further registered an inhibitory constant (Ki) at Adenosine receptor A2b of 707 nM.

`CCOC(=O)C1=C(C)Nc2nc3ccccc3n2C1c1cncs1` (racemic): the inhibition was 32% in series [1], 1% at Adenosine receptor A2a and 1% in series [2]. For the same compound, on Adenosine receptor A2b, the affinity, expressed as Ki, was 215 nM.

`CCOC(=O)C1=C(C)Nc2nc3ccccc3n2C1c1cnoc1` (racemic): the inhibition in series [1] stood at 21%; at Adenosine receptor A2a, 30%; in series [2], 13%. Besides, affinity on Adenosine receptor A2b was put at a Ki of 23.4 nM. For the same compound, the IC50 at Cytochrome P450 3A4 is 4920 nM. On CYP2D6 [3], 1 µM produced 6% inhibition. The compound also registered an inhibition at 10 µM at CYP2D6 [4] of 37%.

In the case of `CCOC(=O)C1=C(C)Nc2nc3ccccc3n2C1c1ccno1` (racemic), the inhibition in series [1] was found to be 1%; on Adenosine receptor A2a, 1%; in series [2], 11%. The same compound yielded a Ki on Adenosine receptor A2b of 714 nM.

As to `CCOC(=O)C1=C(C)Nc2nc3ccccc3n2C1c1ccc[nH]1` (racemic), the figures for the inhibition (in series [1]; at Adenosine receptor A2a; in series [2]) were 45%, 2% and 9%, respectively. On Adenosine receptor A2b, this compound registered a Ki of 49.6 nM.

With `CC1=C(C(=O)OC(C)C)C(c2ccno2)n2c(nc3ccccc32)N1` (racemic), the inhibition stood at 37% in series [1], 7% at Adenosine receptor A2a and 1% in series [2]. Moreover, the inhibition constant (Ki) at Adenosine receptor A2b was determined as 1030 nM.

`CC1=C(C(=O)OC(C)C)C(c2cnsc2)n2c(nc3ccccc32)N1` (racemic): the inhibition in series [1] amounted to 9%; at Adenosine receptor A2a, 11%; in series [2] it was 14%. The Ki on Adenosine receptor A2b turned out to be 278 nM.

`CCOC(=O)C1=C(C)Nc2nc3ccccc3n2C1c1cc[nH]c1` (racemic): the inhibition came to 26% in series [1], 7% on Adenosine receptor A2a and 1% in series [2]. Besides, on Adenosine receptor A2b, the inhibitory constant (Ki) worked out at 449 nM.

Take `CCOC(=O)C1=C(C)Nc2nc3ccccc3n2C1c1ccon1` (racemic): the inhibition amounted to 2% in series [1], 1% on Adenosine receptor A2a and 3% in series [2]. On Adenosine receptor A2b, this compound showed a Ki of 789 nM.

Take `CC1=C(C(=O)OC(C)C)C(c2ccon2)n2c(nc3ccccc32)N1` (racemic): the inhibition in series [1] worked out at 1%; at Adenosine receptor A2a, 2%; in series [2], 4%. Moreover, the inhibitory constant (Ki) on Adenosine receptor A2b is 721 nM.

As to `CC1=C(C(=O)OC(C)C)C(c2cnoc2)n2c(nc3ccccc32)N1` (racemic), the inhibition is 1% in series [1], 2% on Adenosine receptor A2a and 5% in series [2]. Affinity at Adenosine receptor A2b was put at a Ki of 29.6 nM.

For the compound `CC1=C(C(=O)OC(C)C)C(c2nccs2)n2c(nc3ccccc32)N1` (racemic), the inhibition in series [1] stood at 5%; on Adenosine receptor A2a, 4%; in series [2] it was 20%. The inhibition constant (Ki) at Adenosine receptor A2b was 753 nM.

With `CC1=C(C(=O)OC(C)C)C(c2cc[nH]c2)n2c(nc3ccccc32)N1` (racemic), the inhibition in series [1] stood at 19%; on Adenosine receptor A2a, 1%; in series [2], 2%. The compound further had a Ki at Adenosine receptor A2b of 517 nM.

Regarding `CC1=C(C(=O)OC(C)C)C(C2CCCC2)n2c(nc3ccccc32)N1` (racemic), the inhibition was found to be 14% in series [1], 2% at Adenosine receptor A2a and 23% in series [2].

Take `CC1=C(C(=O)OC(C)C)C(c2c[nH]cn2)n2c(nc3ccccc32)N1` (racemic): the inhibition amounted to 5% in series [1], 4% at Adenosine receptor A2a and 8% in series [2].

On to `CC1=C(C(=O)OC(C)C)C(c2ccc(C)o2)n2c(nc3ccccc32)N1` (racemic), for which the inhibition in series [1] was 14%; on Adenosine receptor A2a it was 3%; in series [2] it was 1%.

With `CC1=C(C(=O)OC(C)C)C(c2ccccc2)n2c(nc3ccccc32)N1` (racemic), the results for the inhibition (in series [1]; at Adenosine receptor A2a; in series [2]) were 9%, 3% and 9%, respectively.

On to `CC1=C(C(=O)OC(C)C)C(c2cscn2)n2c(nc3ccccc32)N1` (racemic), for which the inhibition in series [1] turned out to be 1%; on Adenosine receptor A2a, 3%; in series [2] it was 18%.

In the case of `CC1=C(C(=O)OC(C)C)C(c2ncc[nH]2)n2c(nc3ccccc32)N1` (racemic), the inhibition in series [1] worked out at 2%; at Adenosine receptor A2a, 4%; in series [2], 2%.

Regarding `CCOC(=O)C1=C(C)Nc2nc3ccccc3n2C1C1CCCC1` (racemic), the inhibition in series [1] stood at 11%; on Adenosine receptor A2a it was 10%; in series [2] it was 17%.

For the compound `CCOC(=O)C1=C(C)Nc2nc3ccccc3n2C1c1c[nH]cn1` (racemic), the inhibition worked out at 7% in series [1], 16% on Adenosine receptor A2a and 3% in series [2].

For the compound `CCOC(=O)C1=C(C)Nc2nc3ccccc3n2C1c1ccc(C)o1` (racemic), the figures for the inhibition (in series [1]; on Adenosine receptor A2a; in series [2]) were 14%, 1% and 3%, respectively.

For `CCOC(=O)C1=C(C)Nc2nc3ccccc3n2C1c1ccccc1` (racemic), the values for the inhibition (in series [1]; on Adenosine receptor A2a; in series [2]) were 12%, 9% and 15%, respectively.

As for `CCOC(=O)C1=C(C)Nc2nc3ccccc3n2C1c1cnsc1` (racemic), the inhibition is 20% in series [1], 11% on Adenosine receptor A2a and 14% in series [2].

As to `CCOC(=O)C1=C(C)Nc2nc3ccccc3n2C1c1cscn1` (racemic), the inhibition in series [1] was 1%; at Adenosine receptor A2a it was 1%; in series [2], 2%.

The inhibition is the share of the control response that was lost under treatment. As a reminder, the IC50 is the concentration that inhibits the measured activity by half. As a reminder, the Ki is the equilibrium dissociation constant of an inhibitor or competing ligand from its target.
